Where two headings read alike, the source gives them in different places.
Legend:
[1] = Pharmacokinetics after 1-min intravenous infusion to control, G-ARF and C-ARF rats; format: in vivo, Sprague–Dawley rats; conditions: for CLR estimated from free (unbound to plasma proteins) fractions in plasma: based on 20.7% plasma protein binding; for MRT / clearance / CL renal / half-life / Vd / AUC: Sprague-Dawley, rat, plasma, iv, 10 mg/kg; for clearance: read-out: CL (time-averaged total body clearance); for CL renal: read-out: CLR (time-averaged renal clearance); for half-life: read-out: Terminal half-life; for Vd: read-out: Vss; for AUC: time zero to infinity
Procedure: Rats were randomly divided into three groups: control, G-ARF, and C-ARF rats. Acute renal failure was induced in rats by intraperitoneal injection of gentamicin (100 mg/kg, dissolved in 0.9% NaCl-injectable solution) daily for 8 days or by a single intraperitoneal injection of cisplatin (7.5 mg/kg, dissolved in 0.9% NaCl-injectable solution), while control rats were injected with 0.9% NaCl-injectable solution only. […] BUN (Blood urea nitrogen) levels were measured in rats on the last day of induction using a BUN detection kit (Asan Pharmaceutical, Seoul, Korea). Rats with a urea nitrogen level of 36 mg/dL or higher were considered to be acute renal failure-induced and were selected for the study.
For oral and intravenous administration, pretreatment and surgical procedures were performed as previously reported. For oral study, the rats were restricted from eating food overnight but water was freely accessible. The next day, after anesthesia with ketamine at a dose of 100 mg/kg, polyethylene 50 tubes (Clay Adams, Parsippany, NJ, USA) was cannulated into the carotid artery for blood collection. For intravenous study, polyethylene 50 tubes were cannulated into the carotid artery and jugular vein for blood collection and drug administration, respectively. After surgery, rats were allowed to rest for 2–3 h to recover from anesthesia and were free in the individual metabolic cage during the experiment.
Blood samples (110 μL) were collected through the carotid artery at 0 (prior to drug infusion), 1 (at the end of drug infusion), 5, 15, 30, 45, 60, 90, 120, 180, 240, 360, 480, 600, and 720 min and were centrifuged at 8000 × g for 1 min. […] After collecting each blood sample, 0.3 mL of heparinized 0.9% NaCl-injectable solution (10 IU/mL) was immediately administered to the carotid artery to prevent blood clotting. At 24 h, the rat’s abdomen was open and the entire gastrointestinal tract was removed, transferred to a beaker with 50 mL of methanol, and cut into small pieces.
At 24 h after drug administration, urine samples were also collected. The metabolic cage was rinsed with 20 mL of distilled water, which was combined with the 24-h urine sample.
A 50-μL aliquot of biological sample was mixed with 1 μL hydrocortisone (5 mg/mL); then, 20 μL of 20% ammonia solution was added, mixed with a vortex-mixer (Scientific Industries, Bohemia, NY, USA) for 30 s, and extracted with 750 µL ethyl acetate. The organic layer was collected, evaporated on a thermobath (Eyela, Tokyo, Japan) under a gentle stream of nitrogen gas at 40 °C and redissolved by adding 130 µL 20% acetonitrile, and 50 µL of each reconstituted sample was analyzed by HPLC [12, 22].
The reconstituted biological samples were filtered through a 0.45-µm filter (Millipore, Billerica, MA, USA) and analyzed with a reversed-phase column (C18; 25 cm × 4.6 mm, 5 µm; Young Jin Biochrom, Seongnam, Korea) using a UV detector at 287 nm. The mobile phase consisted of 10 mM ammonium acetate buffer (pH 5.0) and acetonitrile at a ratio of 69.5:30.5 (v/v) with a flow rate of 1.0 mL/min.
To estimate pharmacokinetic parameters such as terminal half-life, the apparent volume of distribution at steady state (Vss), area under plasma concentration-time curves from time zero to time infinity (AUC), mean residence time (MRT), and time-averaged total body (CL), and renal (CLR) and nonrenal (CLNR) clearances, standard methods were applied using noncompartmental analysis (WinNonlin, Pharsight Corporation, Mountain View, CA, USA). AUCs were calculated using the trapezoidal rule-extrapolation method. The peak plasma concentration (Cmax) and time that the plasma concentration was peak (Tmax) were directly confirmed from plasma concentration-time curves.

[2] = cited from earlier work
plasma proteins [3] = experiment: Plasma protein binding by equilibrium dialysis; format: in vitro ADME; conditions: plasma from control, G-ARF and C-ARF rats; data not shown
plasma proteins [4] = conditions: equilibrium dialysis; cited from earlier work
[5] = intravenous doses over 20 mg/kg and oral doses over 50 mg/kg; cited from earlier work
[6] = hepatic microsomes of G-ARF rats, not significantly different

## C[C@@H]1CCN(C(=O)CC#N)C[C@@H]1N(C)c1ncnc2[nH]ccc12 [tofacitinib, Tofacitinib]
[1]; C-ARF rats, iv 10 mg/kg
  Ae0–24 h (dose excreted in the 24-h urine): 0.458 ± 0.626 % of dose
  GI24 h (dose remaining in the gastrointestinal tract at 24 h): 0.195 ± 0.157 % of dose
  decrease of Ae0–24 h versus control rats: 95.2%
  decrease of CL versus control rats: 62.3%
  decrease of CLNR versus control rats: 57.4%
  decrease of CLR versus control rats: 98.6%
  increase of AUC versus control rats: 163%
  increase of MRT versus control rats: 154%
  increase of terminal half-life versus control rats: 240%
  CLR estimated from free (unbound to plasma proteins) fractions in plasma: 0.0856 mL/min/kg
[1]; G-ARF rats, iv 10 mg/kg
  Ae0–24 h (dose excreted in the 24-h urine): 5.92 ± 2.76 % of dose
  GI24 h (dose remaining in the gastrointestinal tract at 24 h): 0.00919 ± 0.0225 % of dose
  decrease of Ae0–24 h versus control rats: 37.7%
  decrease of CL versus control rats: 37.7%
  decrease of CLNR versus control rats: 33.2%
  decrease of CLR versus control rats: 69.5%
  increase of AUC versus control rats: 64.0%
  increase of MRT versus control rats: 96.7%
  increase of terminal half-life versus control rats: 78.7%
  CLR estimated from free (unbound to plasma proteins) fractions in plasma: 1.83 mL/min/kg
[1]; C-ARF rats
  MRT: 1.15 h
  clearance: 14.7 ± 2.29 mL/min/kg
  CL renal: 0.0679 ± 0.0917 mL/min/kg
  half-life: 2.23 ± 0.682 h
  Vd: 1 ± 0.558 L/kg
  AUC: 11600 ng·h/mL
[1]; G-ARF rats
  MRT: 0.892 h
  clearance: 24.3 ± 6.95 mL/min/kg
  CL renal: 1.45 ± 1.54 mL/min/kg
  half-life: 1.17 ± 0.493 h
  Vd: 1.17 ± 0.519 L/kg
  AUC: 7220 ng·h/mL
[1]; control rats
  MRT: 0.453 h
  clearance: 39 ± 7.97 mL/min/kg
  half-life: 0.657 ± 0.188 h
  Vd: 1.04 ± 0.402 L/kg
  AUC: 4400 ng·h/mL
[1]; control rats, iv 10 mg/kg
  Ae0–24 h (dose excreted in the 24-h urine): 9.51 ± 0.879 % of dose
  CLR (time-averaged renal clearance): 4.75 ± 1.28 mL/min/kg
  GI24 h (dose remaining in the gastrointestinal tract at 24 h): 0.153 ± 0.306 % of dose
  CLR estimated from free (unbound to plasma proteins) fractions in plasma: 5.99 mL/min/kg
[2]; healthy volunteers, oral 10 mg
  half-life: 3.2 h
  oral dose bound to plasma protein: Approximately 40%
  volume of distribution: 87 L
[2]; human
  Absolute oral bioavailability (F): approximately 74%
Hepatic microsomes; hepatic microsomes of C-ARF rats, not significantly different
  decrease of Vmax for the disappearance of tofacitinib versus control rats: 28.7%
Hepatic microsomes; hepatic microsomes of C-ARF rats, significantly lower
  decrease of CLint for the disappearance of tofacitinib versus control rats: 54.4%
Hepatic microsomes; [6]
  decrease of CLint for the disappearance of tofacitinib versus control rats: 31.1%
  decrease of Vmax for the disappearance of tofacitinib versus control rats: 9.52%
Hepatic microsomes; hepatic microsomes of control, G-ARF and C-ARF rats
  Km values, comparison of groups: comparable among the three groups
Plasma proteins [3]
  free fractions in the plasma, comparison of groups: comparable
Plasma proteins [4]
  plasma protein binding: 20.7%
[5]
  dose proportionality of AUCs: not dose proportional

Source: paper PMC7464785 (Pharmaceutics, 2020)
